Test results published in patent publication US9381208B2, “Structure and use of 5′ phosphate oligonucleotides” (Rheinische Friedrich-Wilhelms-Universität, priority 2006, dated 2016).
Oligonucleotides are written 5' to 3', each unit as a sugar letter and its base; * is a phosphorothioate linkage, no mark a phosphodiester; rarer units and linkages stand in square brackets, end groups in braces. Plain capitals give the bases only. {ppp} = triphosphate group; r = 2'-OH (RNA)

Assays:
[1] = system: human primary monocytes; experiment: IFN-α production in human primary monocytes transfected with RNA (ELISA); format: cell-based; conditions: for IFN-α production in monocytes: 200 ng RNA transfected, 24 hours, ELISA; for IFN-α-inducing activity conferred by the 5′ 4-nucleotide sequence: adenosine-initiated in vitro transcribed RNA oligonucleotides, FIG. 13; for IFN-α induction (*100%) mean: monocytes from three donors, 36 hours after transfection, normalized to the mean induction level of all oligonucleotides (=100%)
[2] = system: PDC; experiment: IFN-α production in human PDC (ELISA); format: cell-based; conditions: 24 hours
Protocol: Human PBMC were prepared from whole blood donated by young healthy donors by Ficoll-Hypaque density gradient centrifugation (Biochrom, Berlin, Germany). PDC were isolated by MACS using the blood dendritic cell Ag (BCDA)-4 dendritic cell isolation kit from Miltenyi Biotec (Bergisch-Gladbach, Germany). Briefly, PDC were labelled with anti-BDCA-4 Ab coupled to colloidal paramagnetic microbeads and passed through a magnetic separation column twice (LS column, then MS column; Miltenyi Biotec). The purity of isolated PDC (lineage-negative, MHC-II-positive and CD123-positive cells) was above 95%. Before isolation of monocytes, PDC were depleted by MACS (LD column; Miltenyi Biotec) and then monocytes were isolated using the monocyte isolation kit II (Miltenyi Biotec). […] PDC cultures were additionally supplemented with 10 ng/ml IL-3 (R&D Systems). […] Vero (African green monkey kidney) and HEK 293T (human embryonic kidney) cells were maintained in Dulbecco's modified Eagle's medium supplemented with antibiotics and 5% or 10% foetal calf serum, respectively. BSR cells were propagated in Glasgow minimal essential medium supplemented with 10% newborn calf serum, phosphate broth, amino acids and antibiotics.
Human IFN-α was assessed in cell culture supernatants using the IFN-α module set (Bender MedSystems, Graz, Austria). The murine IP-10 ELISA was from Biosource (Solingen, Germany), the murine IFN-[…] ELISA was from PBL Biomedical Laboratories (Piscataway, USA). All ELISA procedures were performed, according to manufacturers' recommendations.

Row | Compound | IFN-α-inducing activity conferred by the 5′ 4-nucleotide sequence [1] | IFN-α induction (*100%) mean [1] | also measured
1 | CCOCc1nc2c(N)nc3ccccc3c2n1CC(C)(C)O [R848, reference compound] | – | – | IFN-α production in monocytes [1]: failed to produce IFN-α; IFN-α production in PDC [2]: induce IFN-α in PDC
2 | aucgggggac acacacacac acacacacac (AUCGGGGGACACACACACACACACACACAC; RNA, 5' {ppp}, backbone not given here) [SEQ ID No. 162] | highest IFN-α-inducing activity | 1.28 *100% | –
3 | auguggggac acacacacac acacacacac (AUGUGGGGACACACACACACACACACACAC; RNA, 5' {ppp}, backbone not given here) [SEQ ID No. 153] | highest IFN-α-inducing activity | 1.15 *100% | –
4 | aacuggggac acacacacac acacacacac (AACUGGGGACACACACACACACACACACAC; RNA, 5' {ppp}, backbone not given here) [SEQ ID No. 163] | highest IFN-α-inducing activity | 1.29 *100% | –
5 | accgggggac acacacacac acacacacac (ACCGGGGGACACACACACACACACACACAC; RNA, 5' {ppp}, backbone not given here) [SEQ ID No. 122] | – | 0.73 *100% | –
6 | 5′-pppGGGAGACAGGGGGGGGGGGGGGGGGGGGGGG-3′ [tri-poly G] | – | – | IFN-α production in monocytes [1]: equally potent
7 | acgcggggac acacacacac acacacacac (ACGCGGGGACACACACACACACACACACAC; RNA, 5' {ppp}, backbone not given here) [SEQ ID No. 147] | highest IFN-α-inducing activity | 1.08 *100% | –
8 | acagggggac acacacacac acacacacac (ACAGGGGGACACACACACACACACACACAC; RNA, 5' {ppp}, backbone not given here) [SEQ ID No. 150] | highest IFN-α-inducing activity | 1.12 *100% | –
9 | aaagggggac acacacacac acacacacac (AAAGGGGGACACACACACACACACACACAC; RNA, 5' {ppp}, backbone not given here) [SEQ ID No. 173] | highest IFN-α-inducing activity | 1.40 *100% | –
10 | accaggggac acacacacac acacacacac (ACCAGGGGACACACACACACACACACACAC; RNA, 5' {ppp}, backbone not given here) [SEQ ID No. 126] | – | 0.79 *100% | –
11 | aauuggggac acacacacac acacacacac (AAUUGGGGACACACACACACACACACACAC; RNA, 5' {ppp}, backbone not given here) [SEQ ID No. 119] | – | 0.67 *100% | –
12 | 5′-PPPGGGAGACAGGCCCCCCCCCCCCCCCCCCCCC-3′ [tri-poly C] | – | – | IFN-α production in monocytes [1]: equally potent
13 | aaguggggac acacacacac acacacacac (AAGUGGGGACACACACACACACACACACAC; RNA, 5' {ppp}, backbone not given here) [SEQ ID No. 174] | highest IFN-α-inducing activity | 1.40 *100% | –
14 | acuaggggac acacacacac acacacacac (ACUAGGGGACACACACACACACACACACAC; RNA, 5' {ppp}, backbone not given here) [SEQ ID No. 117] | – | 0.62 *100% | –
15 | acaaggggac acacacacac acacacacac (ACAAGGGGACACACACACACACACACACAC; RNA, 5' {ppp}, backbone not given here) [SEQ ID No. 142] | highest IFN-α-inducing activity | 1.01 *100% | –
16 | aaggggggac acacacacac acacacacac (AAGGGGGGACACACACACACACACACACAC; RNA, 5' {ppp}, backbone not given here) [SEQ ID No. 149] | highest IFN-α-inducing activity | 1.11 *100% | –
17 | 5′-pppAACCUGUCCUUCAAUUACC-3′ [RNA9.2s-5A] | – | – | IFN-α production in monocytes [1]: paralleled RNA9.2-0A

Row | Compound | IFN-α-inducing activity conferred by the 5′ 4-nucleotide sequence [1] | IFN-α induction (*100%) mean [1] | also measured
18 | aguaggggac acacacacac acacacacac (AGUAGGGGACACACACACACACACACACAC; RNA, 5' {ppp}, backbone not given here) [SEQ ID No. 158] | highest IFN-α-inducing activity | 1.22 *100% | –
19 | aucaggggac acacacacac acacacacac (AUCAGGGGACACACACACACACACACACAC; RNA, 5' {ppp}, backbone not given here) [SEQ ID No. 160] | highest IFN-α-inducing activity | 1.24 *100% | –
20 | aacgggggac acacacacac acacacacac (AACGGGGGACACACACACACACACACACAC; RNA, 5' {ppp}, backbone not given here) [SEQ ID No. 170] | highest IFN-α-inducing activity | 1.34 *100% | –
21 | agcaggggac acacacacac acacacacac (AGCAGGGGACACACACACACACACACACAC; RNA, 5' {ppp}, backbone not given here) [SEQ ID No. 164] | highest IFN-α-inducing activity | 1.29 *100% | –
22 | acacggggac acacacacac acacacacac (ACACGGGGACACACACACACACACACACAC; RNA, 5' {ppp}, backbone not given here) [SEQ ID No. 135] | – | 0.95 *100% | –
23 | auuuggggac acacacacac acacacacac (AUUUGGGGACACACACACACACACACACAC; RNA, 5' {ppp}, backbone not given here) [SEQ ID No. 138] | – | 0.99 *100% | –
24 | aacaggggac acacacacac acacacacac (AACAGGGGACACACACACACACACACACAC; RNA, 5' {ppp}, backbone not given here) [SEQ ID No. 166] | highest IFN-α-inducing activity | 1.30 *100% | –
25 | agucggggac acacacacac acacacacac (AGUCGGGGACACACACACACACACACACAC; RNA, 5' {ppp}, backbone not given here) [SEQ ID No. 140] | highest IFN-α-inducing activity | 1.00 *100% | –
26 | agaaggggac acacacacac acacacacac (AGAAGGGGACACACACACACACACACACAC; RNA, 5' {ppp}, backbone not given here) [SEQ ID No. 165] | highest IFN-α-inducing activity | 1.29 *100% | –
27 | acccggggac acacacacac acacacacac (DNA ACCCGGGGACACACACACACACACACACAC; chemistry not fully specified) [SEQ ID No. 130] | – | 0.89 *100% | –
28 | acggggggac acacacacac acacacacac (ACGGGGGGACACACACACACACACACACAC; RNA, 5' {ppp}, backbone not given here) [SEQ ID No. 145] | highest IFN-α-inducing activity | 1.03 *100% | –
29 | auacggggac acacacacac acacacacac (AUACGGGGACACACACACACACACACACAC; RNA, 5' {ppp}, backbone not given here) [SEQ ID No. 139] | – | 0.99 *100% | –
30 | aagcggggac acacacacac acacacacac (AAGCGGGGACACACACACACACACACACAC; RNA, 5' {ppp}, backbone not given here) [SEQ ID No. 157] | highest IFN-α-inducing activity | 1.22 *100% | –
31 | aauaggggac acacacacac acacacacac (AAUAGGGGACACACACACACACACACACAC; RNA, 5' {ppp}, backbone not given here) [SEQ ID No. 112] | – | 0.40 *100% | –
32 | auaaggggac acacacacac acacacacac (AUAAGGGGACACACACACACACACACACAC; RNA, 5' {ppp}, backbone not given here) [SEQ ID No. 127] | – | 0.82 *100% | –
33 | auauggggac acacacacac acacacacac (AUAUGGGGACACACACACACACACACACAC; RNA, 5' {ppp}, backbone not given here) [SEQ ID No. 129] | – | 0.89 *100% | –
34 | tri-GFPds: annealed dsRNA molecule of tri-GFPs (SEQ ID NO: 341) and tri-GFPa (SEQ ID NO: 348) (sense {ppp}-rGrGrGrGrCrUrGrArCrCrCrUrGrArArGrUrUrCrArUrCrUrU; antisense {ppp}-rGrGrGrGrArUrGrArArCrUrUrCrArGrGrGrUrCrArGrCrUrU; in vitro transcribed strands annealed as dsRNA) | – | – | IFN-α production in monocytes [1]: comparable levels of IFN-α; IFN-α inducing activity after cleavage of the 5′ overhang by RNAse T1 ([1]; monocytes): completely abolished the IFN-α inducing activity
